Assay results: ChEMBL document CHEMBL4354809, “p97: An Emerging Target for Cancer, Neurodegenerative Diseases, and Viral Infections” (J Med Chem, 2020)

Legend:
[1] = tested on: Panel NCI-60 (60 carcinoma cell lines); assay: Growth inhibition of human NCI60 cells; format: functional, cell-based
[2] = target: T1, Transitional endoplasmic reticulum ATPase (Homo sapiens, UniProt P55072); assay: Inhibition of human p97
JeKo-1 = assay: Growth inhibition of human JeKo1 cells assessed as reduction in cell viability by MTT assay; format: functional, cell-based
[3] = target: T1, Transitional endoplasmic reticulum ATPase; assay: Binding affinity to p97 (unknown origin) by SPR assay
[4] = target: T1, Transitional endoplasmic reticulum ATPase; assay: Inhibition of p97 (unknown origin) by ADP-Glo assay
[5] = target: T2, Vacuolar protein sorting-associated protein 4B (Homo sapiens, UniProt O75351); assay: Inhibition of VPS4B (unknown origin) assessed as reduction in ATPase activity in presence of activating fragment of substrate CHMP1B
T2 sequence (O75351 whole entry): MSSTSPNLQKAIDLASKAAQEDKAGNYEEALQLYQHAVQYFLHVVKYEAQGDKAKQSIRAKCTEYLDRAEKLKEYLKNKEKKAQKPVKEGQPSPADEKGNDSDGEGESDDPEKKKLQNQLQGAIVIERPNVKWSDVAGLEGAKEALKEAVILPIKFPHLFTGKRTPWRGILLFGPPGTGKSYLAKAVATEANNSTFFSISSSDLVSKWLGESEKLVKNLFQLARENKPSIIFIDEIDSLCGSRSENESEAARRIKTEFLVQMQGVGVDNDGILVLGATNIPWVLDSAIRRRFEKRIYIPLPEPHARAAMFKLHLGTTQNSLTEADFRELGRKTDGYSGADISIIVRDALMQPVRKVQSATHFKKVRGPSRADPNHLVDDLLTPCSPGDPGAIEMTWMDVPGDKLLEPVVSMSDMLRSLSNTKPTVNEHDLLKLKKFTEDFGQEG

[6] = target: T1, Transitional endoplasmic reticulum ATPase; assay: Inhibition of p97 (unknown origin) by malachite green assay
Homo sapiens = species: Homo sapiens; assay: Selectivity ratio of IC50 for inhibition of p97 (unknown origin) by malachite green assay to IC50 for inhibition of VPS4B (unknown origin) by malachite green assay
[7] = target: T2, Vacuolar protein sorting-associated protein 4B; assay: Inhibition of VPS4B (unknown origin) by malachite green assay
[8] = target: T1, Transitional endoplasmic reticulum ATPase; assay: Inhibition of p97 (unknown origin) assessed as reduction in ATPase activity
Human betaherpesvirus 5 = assay: Antiviral activity against Human Cytomegalovirus; format: functional, organism-based
[9] = target: T1, Transitional endoplasmic reticulum ATPase; assay: Inhibition of p97 in human HeLa cells assessed as reduction in p97-dependent UbG76V-GFP degradation incubated for 1 hr by […] reporter gene assay; format: cell-based
[10] = target: T1, Transitional endoplasmic reticulum ATPase; assay: Binding affinity to GST-tagged p97 (unknown origin) by CD spectroscopy
[11] = target: T1, Transitional endoplasmic reticulum ATPase; assay: Inhibition of GST-fused VCP (unknown origin) expressed in Escherichia coli BL21 star (DE3) pre-incubated for 60 mins before ATP addition and measured after 60 mins by kinase Glo-Plus reagent based assay
[12] = target: T1, Transitional endoplasmic reticulum ATPase; assay: Inhibition of p97 (unknown origin) expressed in Escherichia coli BL21 (DE3) pre-incubated for 10 mins before ATP addition and measured up to 120 mins measured by malachite green assay
[13] = target: T1, Transitional endoplasmic reticulum ATPase; assay: Inhibition of p97 in HEK293 cells co-expressing GFP and hemagglutinin assessed as reduction in p97-dependent ERAD pathway by immunoblotting analysis; format: cell-based
HCT-116 = assay: Antiproliferative activity against human HCT116 cells; format: functional, cell-based
[14] = target: ATP-dependent clpX-like chaperone, mitochondrial (Homo sapiens, UniProt O76031); assay: Inhibition of ClpX (unknown origin) expressed in Escherichia coli BL21 (DE3) pre-incubated for 10 mins before ATP addition and measured up to 120 mins measured by malachite green assay
ATP-dependent clpX-like chaperone, mitochondrial, sequence (O76031 whole entry): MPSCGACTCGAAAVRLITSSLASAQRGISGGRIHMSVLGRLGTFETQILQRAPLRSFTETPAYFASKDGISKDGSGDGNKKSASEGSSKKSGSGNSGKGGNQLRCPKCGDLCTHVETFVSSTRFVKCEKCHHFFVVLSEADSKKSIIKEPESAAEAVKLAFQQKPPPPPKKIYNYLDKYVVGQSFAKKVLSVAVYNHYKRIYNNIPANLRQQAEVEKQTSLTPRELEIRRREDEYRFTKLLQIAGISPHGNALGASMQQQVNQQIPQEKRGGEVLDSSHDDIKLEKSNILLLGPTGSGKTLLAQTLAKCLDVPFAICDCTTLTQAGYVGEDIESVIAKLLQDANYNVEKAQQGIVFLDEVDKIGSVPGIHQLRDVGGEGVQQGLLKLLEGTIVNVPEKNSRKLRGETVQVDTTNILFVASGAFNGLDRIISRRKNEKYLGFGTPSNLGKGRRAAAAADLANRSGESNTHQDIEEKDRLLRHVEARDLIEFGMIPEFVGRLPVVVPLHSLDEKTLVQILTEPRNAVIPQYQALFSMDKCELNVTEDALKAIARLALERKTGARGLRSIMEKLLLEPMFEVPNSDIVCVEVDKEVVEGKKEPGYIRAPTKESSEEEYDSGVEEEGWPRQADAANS

T1 sequence (P55072 whole entry): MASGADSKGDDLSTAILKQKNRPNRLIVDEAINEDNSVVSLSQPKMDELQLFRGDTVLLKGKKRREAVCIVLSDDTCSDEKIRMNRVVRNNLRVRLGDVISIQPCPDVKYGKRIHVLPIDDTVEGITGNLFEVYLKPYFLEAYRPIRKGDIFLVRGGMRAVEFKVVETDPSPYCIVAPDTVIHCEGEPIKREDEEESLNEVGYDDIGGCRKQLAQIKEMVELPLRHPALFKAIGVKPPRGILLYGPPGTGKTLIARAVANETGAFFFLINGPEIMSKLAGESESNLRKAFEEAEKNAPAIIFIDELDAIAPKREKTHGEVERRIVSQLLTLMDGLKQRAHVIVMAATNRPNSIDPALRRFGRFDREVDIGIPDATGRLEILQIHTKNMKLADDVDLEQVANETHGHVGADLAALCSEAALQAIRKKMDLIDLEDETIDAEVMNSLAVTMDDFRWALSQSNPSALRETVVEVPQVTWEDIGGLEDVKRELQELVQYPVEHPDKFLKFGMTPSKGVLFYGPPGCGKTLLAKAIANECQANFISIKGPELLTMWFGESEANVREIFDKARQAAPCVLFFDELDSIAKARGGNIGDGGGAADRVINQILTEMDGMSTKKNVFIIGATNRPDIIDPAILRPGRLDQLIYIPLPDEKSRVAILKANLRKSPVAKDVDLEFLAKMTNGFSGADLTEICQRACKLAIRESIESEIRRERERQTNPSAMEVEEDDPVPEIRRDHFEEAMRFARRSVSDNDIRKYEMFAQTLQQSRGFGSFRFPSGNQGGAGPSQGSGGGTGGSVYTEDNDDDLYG

`CC(C)N1CCN(CCNC2CCN(c3cccc(-c4cc5cc(F)ccc5[nH]4)c3)CC2)CC1` was tested, and the IC50 [1] was 0.316 to 2 µM and the IC50 [2] was 0.02 to 0.07 µM.

`CC1(C)C(N(O)C(=O)Nc2ccc(Cl)cc2)N(c2ccc(Cl)cc2)C(=O)N1CC(=O)N/N=C/C=C/c1ccc([N+](=O)[O-])o1` (stereo not drawn) was tested, and the IC50 (JeKo-1) was 4 µM and the Kd [3] was 5 to 10 µM.

With `CC(C)N1CCN(CCNC2CCN(c3cccc(-c4cc5cc(C#N)ccc5[nH]4)c3)CC2)CC1` the IC50 [4] was 0.044 µM.

Compound `Fc1ccc(C(CCCNCC2CCc3[nH]c4ccc(F)cc4c3C2)c2ccc(F)cc2)cc1` (stereo not drawn) has an IC50 [5] of 0.71 µM, an IC50 [6] of 7.2 µM and a Ratio IC50 (Homo sapiens) of 10. The IC50 [7] was 0.71 µM.

`[N-]=[N+]=Nc1cccc(OCc2nnc(SC3CCCC3)n2-c2cccnc2)c1` showed an IC50 [8] of 0.76 µM.

`CC(C)N1CCN(CCNC2CCN(c3cccc(-c4cc5cc(C(=O)N(C)C)ccc5[nH]4)c3)CC2)CC1` was tested, and the IC50 [4] was 31.4 µM.

`Nc1nc2c(ncn2COC(CO)CO)c(=O)[nH]1` [GANCICLOVIR] gave an IC50 (Human betaherpesvirus 5) of 1.3 µM.

Work on `Clc1ccccc1C(c1ccccc1)(c1ccccc1)n1ccnc1` [CLOTRIMAZOLE] yielded an IC50 [9] of 1.4 µM.

`O=C(/C=C1\Nc2ccccc2C(=O)N2CCC[C@@H]12)/C=C/c1c[nH]c2ccc(I)cc12` was tested, and the Kd [10] was 7 µM.

`COc1ccc(C(=O)c2oc3ccccc3c2NC(C)=O)cc1` was tested, and the IC50 [11] was greater than 100 µM.

In the case of `CC(C)N1CCN(CCNC2CCN(c3cccc(-c4cc5cc(C(F)(F)F)ccc5[nH]4)c3)CC2)CC1`, the IC50 [4] is reported as 4.6 µM.

Compound `C[C@H]1CCC/C=C/C(=O)c2c(O)c(Cl)c(O)c(Cl)c2CC(=O)O1` has an IC50 [12] of 15.3 µM and an IC50 [13] of 7.9 µM.

With `O=C(CCl)Nc1cccc(NC2=NS(=O)(=O)c3ccccc32)c1` the IC50 (HCT-116) was 3 µM.

With `Cc1cc(OCc2nnc(SC3CCCC3)n2-c2cccnc2)ccc1-c1ccc(S(C)(=O)=O)cc1` the IC50 (Human betaherpesvirus 5) was 0.13 µM.

Compound `[N-]=[N+]=Nc1cccc(-n2c(COc3ccc(CCCO)cc3)nnc2SC2CCCC2)c1` has an IC50 [8] of 1.1 µM.

`CC(=O)OCC1=C(C)C[C@H]([C@@H](C)[C@H]2CC[C@H]3[C@@H]4C[C@H]5O[C@]56[C@@H](O)C=CC(=O)[C@]6(C)[C@H]4CC[C@]23C)OC1=O` showed an IC50 [12] of 22 µM and an IC50 [14] of 9.5 µM.
